Columns and labels:
[1] = target: T1, TMSB10 (Homo sapiens, UniProt P63313); experiment: Cellular Thermal Shift Assay (CETSA) in OVCAR8 cells; assay type: binding; settings: SU056 2.5 μM, 1.5 h, read-out: increase in thermal stability (Tm shift) of TMSB10
T1 construct: endogenous in cells; host or cells: OVCAR8
Procedure: The cellular thermal shift assay (CETSA) is based on the principle of protein-ligand interactions causing a shift in protein thermal stability (Savitski et al., 2014). When a protein interacts with ligand, its thermal stability increases, and this principle allows identification of which protein targets that are engaged by small molecules or drug candidates. We used this assay to identify protein targets of SU056. OVCAR8 cells were treated with SU056 (2.5 μM) for 1.5 h, and protein lysates were analyzed for a thermal shift. The heat maps represent the thermal stability of 804 soluble proteins in the presence and absence of SU056 compare with 37° C. (FIG. 3A).
Cellular Thermal Shift Assay (CETSA): The assay was performed as previously described (Savitski et al., 2014). Briefly, OVCAR8 cells were treated with vehicle (DMSO) or SU056 (2.5 μM) at 70-80% confluency for 1.5 h. Cells were harvested and washed with 1×PBS twice. Cells were pelleted and resuspended in PBS. 10 different PCR tubes with 1×10^6 cells/tube (in 100 μL PBS) were prepared for both the groups. Tubes were exposed to respective temperatures (37, 41, 44, 47, 50, 53, 56, 59, 63, 67° C.) for 3 min using a thermal cycler (Bio-Rad, CA, USA) followed by 2 min incubation at room temperature.

[2] = tested on: SK-MEL-28; experiment: NCI-60 cell line panel; assay type: cell-based; settings: Homo sapiens, 48 hours
Excerpt: (§1) FIG. 17: Assay of SU056 in NCI-60 cell line panel.

[3] = tested on: MDA-MB-468; experiment: NCI-60 cell line panel; assay type: cell-based; settings: Homo sapiens, 48 hours
Excerpt: as §1

[4] = tested on: MDA-MB-435; experiment: NCI-60 cell line panel; assay type: cell-based; settings: Homo sapiens, 48 hours
Excerpt: as §1

[5] = tested on: MCF7; experiment: NCI-60 cell line panel; assay type: cell-based; settings: Homo sapiens, 48 hours
Excerpt: as §1

[6] = tested on: TK-10; experiment: NCI-60 cell line panel; assay type: cell-based; settings: Homo sapiens, 48 hours
Excerpt: as §1

[7] = tested on: A498; experiment: NCI-60 cell line panel; assay type: cell-based; settings: Homo sapiens, 48 hours
Excerpt: as §1

[8] = tested on: SF-539; experiment: NCI-60 cell line panel; assay type: cell-based; settings: Homo sapiens, 48 hours
Excerpt: as §1

[9] = tested on: KM12; experiment: NCI-60 cell line panel; assay type: cell-based; settings: Homo sapiens, 48 hours
Excerpt: as §1

[10] = tested on: SNB-75; experiment: NCI-60 cell line panel; assay type: cell-based; settings: Homo sapiens, 48 hours
Excerpt: as §1

[11] = tested on: NCI-H23; experiment: NCI-60 cell line panel; assay type: cell-based; settings: Homo sapiens, 48 hours
Excerpt: as §1

[12] = tested on: MDA-MB-231/ATCC; experiment: NCI-60 cell line panel; assay type: cell-based; settings: Homo sapiens, 48 hours
Excerpt: as §1

[13] = tested on: SNB-19; experiment: NCI-60 cell line panel; assay type: cell-based; settings: Homo sapiens, 48 hours
Excerpt: as §1

[14] = tested on: DU-145; experiment: NCI-60 cell line panel; assay type: cell-based; settings: Homo sapiens, 48 hours
Excerpt: as §1

[15] = tested on: HCT-15; experiment: NCI-60 cell line panel; assay type: cell-based; settings: Homo sapiens, 48 hours
Excerpt: as §1

[16] = tested on: HCT-116; experiment: NCI-60 cell line panel; assay type: cell-based; settings: Homo sapiens, 48 hours
Excerpt: as §1

[17] = tested on: M14; experiment: NCI-60 cell line panel; assay type: cell-based; settings: Homo sapiens, 48 hours
Excerpt: as §1

[18] = tested on: SK-MEL-5; experiment: NCI-60 cell line panel; assay type: cell-based; settings: Homo sapiens, 48 hours
Excerpt: as §1

[19] = tested on: SF-268; experiment: NCI-60 cell line panel; assay type: cell-based; settings: Homo sapiens, 48 hours
Excerpt: as §1

[20] = tested on: UACC-257; experiment: NCI-60 cell line panel; assay type: cell-based; settings: Homo sapiens, 48 hours
Excerpt: as §1

[21] = tested on: CCRF-CEM; experiment: NCI-60 cell line panel; assay type: cell-based; settings: Homo sapiens, 48 hours
Excerpt: as §1

[22] = tested on: HCC-2998; experiment: NCI-60 cell line panel; assay type: cell-based; settings: Homo sapiens, 48 hours
Excerpt: as §1

[23] = tested on: EKVX; experiment: NCI-60 cell line panel; assay type: cell-based; settings: Homo sapiens, 48 hours
Excerpt: as §1

[24] = tested on: 786-0; experiment: NCI-60 cell line panel; assay type: cell-based; settings: Homo sapiens, 48 hours
Excerpt: as §1

[25] = tested on: UO-31; experiment: NCI-60 cell line panel; assay type: cell-based; settings: Homo sapiens, 48 hours
Excerpt: as §1

[26] = tested on: SN12C; experiment: NCI-60 cell line panel; assay type: cell-based; settings: Homo sapiens, 48 hours
Excerpt: as §1

[27] = tested on: OVCAR8, SKOV3, and ID8 cells; experiment: Cell cycle analysis (propidium iodide, flow cytometry); assay type: cell-based
Procedure: To determine whether proliferation inhibition was the dominant factor driving the reduction in OC viability seen with AzP treatment, we used propidium iodide and annexin-FITC stains with flow cytometry to measure the distribution of cell cycle phases after treatment. […] Furthermore, in the Boyden chamber assay for cell migration, SU093 inhibited cell migration by 40-46% (1 μM, P<0.05) in different OC cell lines.
Cell cycle analysis: 30,000 OC cells were plated in each well of 12 well plates and incubated for 24 h. […] Both live and dead cells were collected via trypsinization and cell pellets were fixed with 70% ethanol. Fixed cells were stained using propidium iodide (PI) cocktail (80 μg/mL RNase A and 50 μg/mL PI in saponin-EDTA solution) and incubated at 4° C. overnight. Each sample was analyzed using a Guava® easyCyte™ Flow Cytometer (Millipore, Burlington, MA). FlowJo software calculated the % cells in each cell cycle phase.
FIG. 1A) Lead optimization of SU093 to obtain SU056. FIG. 1B) IC50 values of SU093 and SU056 on various ovarian cancer cells. Clonogenic survival of OC cells treated with SU093 or SU056. […] FIG. 1C) Representative colony formation from respective wells. FIG. 1D) Number of colonies formed after SU093 and SU056 treatment. […] FIG. 1F) Cell cycle distribution of propidium iodide (PI)-stained OVCAR8, SKOV3, and ID8 cells. […] FIG. 1G) Effects of SU093 and SU056 on apoptotic cell death analyzed by Annexin-FITC staining. […] FIG. 1H) Cell migration assay.

[28] = target: YB-1 (Homo sapiens, UniProt P67809); experiment: Pulldown assay using biotinylated SU056; settings: OVCAR8 cells and protein lysate
Chain of YB-1 (P67809 whole entry): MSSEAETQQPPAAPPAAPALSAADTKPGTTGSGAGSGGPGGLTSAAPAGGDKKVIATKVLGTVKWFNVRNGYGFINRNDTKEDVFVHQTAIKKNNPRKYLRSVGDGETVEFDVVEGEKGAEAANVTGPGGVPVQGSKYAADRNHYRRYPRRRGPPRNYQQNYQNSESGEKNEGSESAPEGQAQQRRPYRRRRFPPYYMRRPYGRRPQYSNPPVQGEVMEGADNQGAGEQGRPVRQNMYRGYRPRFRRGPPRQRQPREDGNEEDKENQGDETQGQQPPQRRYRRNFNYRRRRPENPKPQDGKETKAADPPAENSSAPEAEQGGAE
Procedure: Pulldown assay using biotinylated SU056: protein pulldown assay was performed using biotinylated SU056. […] Pulldown from cells: OVCAR8 cells were treated with 2.5 μM biotinylated SU056 for 1.5 h. Treated cells were collected and lysed using M-PER™ lysis solution (Thermo Scientific, #78503), supplemented with Halt protease and phosphatase inhibitor cocktail (Thermo Scientific, #78440). 300 μg protein was incubated with magnetic conjugate streptavidin bead (CST, #5947) at 4° C. on rocker overnight. […] Pulldown from cell lysates: OVCAR8 cells were collected and lysed using M-PER™ lysis solution (Thermo Scientific, #78503), supplemented with Halt protease and phosphatase inhibitor cocktail (Thermo Scientific, #78440). 1000 μg protein was incubated with 10 μM biotinylated SU056 at 4° C. on rocker overnight followed by overnight incubation with magnetic conjugate streptavidin bead (CST, #5947) at 4° C. After both the pulldown, biotin-streptavidin conjugates were pulldown and washed using magnetic rack. After three washing, beads were resuspended in 2×SDS sample buffer followed by heating at 90-100° C. for 5 min. Samples were resolved and probed with GBP1 (Abnova, #H00002633-PW1, 1:2000) and YB-1 (CST, #8475; 1:2000) as described above in immunoblotting. […]

[29] = tested on: OVCAR8 YBX1-shRNA1 cells; experiment: Cell viability assay, transduced OVCAR8 cells; settings: Homo sapiens, OVCAR-8, read-out: IC50 (cell viability)
Excerpt: To check the dependency of SU056 activity on YB-1 expression, we also tested OVCAR8 cells transfected with YB-1 knockdown using transduction of lentiviral shRNA vectors. […] Furthermore, we also performed a cell viability assay using knockdown cells to calculate IC50 values.
Scrambled control (SC), YBX1 knockdown (1 & 2) and mCherry-YBX1 OVCAR8 cell lines were created using lentiviral based transduction and selected using puromycin resistance followed by cell shorting.
Cell viability assay: Cell viability was assessed using the standard MTT assay protocol. In brief, 5,000 cells were plated in each well of 96 well plates (Corning-Costar, #3598) and allowed to attach for 24 h. Cells were treated with a respective concentration of compounds for respective time points. A stock solution of each compound was prepared in DMSO. DMSO concentration was kept constant and maintained below 0.1%. After each incubation, 50 μL of 0.5 mg/ml MTT solution prepared in 1×PBS was added to each well followed by 1 h incubation at 37° C. and 5% CO2. MTT solution and media were then removed, and MTT formazan crystals were dissolved in 100 μL of DMSO per well. Absorbance at 570 nm for each well was recorded using a multimode plate reader to quantitate MTT crystallization. Each absorbance value was normalized to controls and converted into percent cell viability. […]

T1 sequence (P63313 whole entry): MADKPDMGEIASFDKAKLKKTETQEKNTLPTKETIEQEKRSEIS

Work on `O=C1OCC2=C1C(c1cccc(F)c1)c1cc3c(cc1N2CCO)OCO3` (stereo not drawn) [SU056, 9-(3-fluorophenyl)-5-(2-hydroxyethyl)-6,9-dihydro-[1,3]dioxolo[4,5-g]furo[3,4-b]quinolin-8(5H)-one] yielded a ΔTm at 2.5 µM [1] of 5.89 ± 1.18 °C, an IC50 [2] of 20.3 µM and an IC50 [3] of 1.12 µM. It also gave an IC50 [4] of 0.187 µM, an IC50 [5] of 1.44 µM and an IC50 [6] of 15.6 µM. It also gave an IC50 [7] of 1.11 µM, an IC50 [8] of 1.13 µM and an IC50 [9] of 1.48 µM. For the same molecule, the IC50 [10] was 0.82 µM, the IC50 [11] was 3.96 µM and the IC50 [12] was 3.09 µM. For the same molecule, the IC50 [13] was 3 µM, the IC50 [14] was 2.71 µM and the IC50 [15] was 1.08 µM. It also gave an IC50 [16] of 1.53 µM, an IC50 [17] of 0.357 µM and an IC50 [18] of 1.26 µM. It also gave an IC50 [19] of 3.2 µM, an IC50 [20] of 50 µM and an IC50 [21] of 2.37 µM. For the same molecule, the IC50 [22] was 7.06 µM, the IC50 [23] was 3.03 µM and the IC50 [24] was 1.86 µM. The IC50 [25] was 2.88 µM, the IC50 [26] was 3.05 µM and the cell cycle distribution ([27]; 12 h treatment, PI-stained OVCAR8, SKOV3, ID8) was “G1 phase arrest”. For the same molecule, the “cell cycle arrest, comparison of SU056 with SU093” value ([27]; OC lines) was “greater cell cycle arrest than SU093”, the “physical interaction with YB-1 (pulldown)” value [28] was “physically interacts with YB-1” and the IC50 [29] was 15.8 µM.

— patent US20240016784A1, “Y BOX BINDING PROTEIN 1 INHIBITORS” (Oregon Health & Science University, priority 2020, published 2024)
